Test: recombinant barcode read abundance after kanamycin selection (control-corrected) (log10(CPM+1)); higher = more efficient recombination; sequences stand for … in AGTGCAGAGAAAATCGGCCAGTTTTCTCTGCCTGCAGTCCGCATGCCGT…AGATTTATGCAGCGGACTGCCTTTCTCCCAAAGTGATAAACCGGACAGTATCATGGACCGGTTTTCCCGGTAATCCGTATTTGCAAGGTTGGTTTCACT; site = the 11-nt target
How it was run: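 The screen was pooled in E. coli and paired targets with IS621 bridge RNA target-binding loops. Recombination efficiency is taken from barcode counts per million at recombinant junctions, averaged and adjusted against the control. Values, in the form log10(CPM+1), come from duplicate plating on chloramphenicol/ampicillin LB agar or on chloramphenicol/ampicillin/kanamycin with 0.1 mM IPTG.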
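Further: IS621 recombinase and bridge RNA in Escherichia coli cells.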

| Sequence | recombinant barcode read abundance (log10) |
| --- | --- |
| TGCCAGACTTGGGTTCTAACCTGTTGCAT (site TGCCAGCCTAG) | 0.466 |
| TGCCCGCCTTGGGTTCTAACCTGTTGCCT (site AGCCCGCCTAG) | 0.0736 |
| TGCCCGCCTTGGGTTCTAACCTGTTGCCT (site CGCCCGCCTAG) | 0.102 |
| TGCCCGCCTTGGGTTCTAACCTGTTGCCT (site GGCCCGCCTAG) | 0.757 |
| TGCCCGCCTTGGGTTCTAACCTGTTGCCT (site TGCCCGCCTAG) | 0.292 |
| TGCCGACCTTGGGTTCTAACCTGTTGCCT (site TGCCGACCTAG) | 0.321 |
| TGCCGACCTTGGGTTCTAACCTGTTGCCT (site TGCGGAGCTAG) | 0.185 |
| TGCCTAGCTTGGGTTCTAACCTGTTGCCT (site TGACTAGCTAG) | 0.0824 |
| TGCCTAGCTTGGGTTCTAACCTGTTGCCT (site TGCCTAGCTAG) | 0.24 |
| TGCCTAGCTTGGGTTCTAACCTGTTGCCT (site TGGCTAGCTAG) | 0.11 |
| TGCCTAGCTTGGGTTCTAACCTGTTGCCT (site TGTCTAGCTAG) | 0.0825 |
| TGCCTATCTTGGGTTCTAACCTGTTGCTT (site ATGTCTACTCT) | 0.325 |
| TGCCTATCTTGGGTTCTAACCTGTTGCTT (site TGCCTATCTAA) | 0.52 |
| TGCCTGCCTTGGGTTCTAACCTGTTGCCT (site AAGACAACTCC) | 0.06 |
| TGCCTGCCTTGGGTTCTAACCTGTTGCCT (site TGCCTGCCTAG) | 0.287 |
| TGCGCCTCTTGGGTTCTAACCTGTTGCTG (site TACGCCTCTTA) | 0.108 |
| TGCGCCTCTTGGGTTCTAACCTGTTGCTG (site TGCGCCTCTCA) | 1.26 |
| TGCGCTACTTGGGTTCTAACCTGTTGCCT (site TGCGCAACTAG) | 0.0205 |
| TGCGCTACTTGGGTTCTAACCTGTTGCCT (site TGCGCCACTAG) | 0.0462 |
| TGCGCTACTTGGGTTCTAACCTGTTGCCT (site TGCGCGACTAG) | 0.141 |
| TGCGCTACTTGGGTTCTAACCTGTTGCCT (site TGCGCTACTAG) | 0.25 |
| TGCGGAGCTTGGGTTCTAACCTGTTGCCG (site GATTATACTAA) | 0.0782 |

| Sequence | recombinant barcode read abundance (log10) |
| --- | --- |
| TGCGGAGCTTGGGTTCTAACCTGTTGCCG (site TGCGGAGCTCG) | 0.726 |
| TGCGTCCCTTGGGTTCTAACCTGTTGCCT (site TGAGTCCCTAG) | 0.405 |
| TGCGTCCCTTGGGTTCTAACCTGTTGCCT (site TGCGTCCCTAG) | 0.291 |
| TGCGTCCCTTGGGTTCTAACCTGTTGCCT (site TGGGTCCCTAG) | 0.117 |
| TGCGTCCCTTGGGTTCTAACCTGTTGCCT (site TGTGTCCCTAG) | 0.0158 |
| TGCTCCTCTTGGGTTCTAACCTGTTGCCT (site AGCTCCTCTAG) | 0.0656 |
| TGCTCCTCTTGGGTTCTAACCTGTTGCCT (site CGCTCCTCTAG) | 0.153 |
| TGCTCCTCTTGGGTTCTAACCTGTTGCCT (site GGCTCCTCTAG) | 0.109 |
| TGCTCCTCTTGGGTTCTAACCTGTTGCCT (site TGCTCCTCTAG) | 0.274 |
| TGCTTCCCTTGGGTTCTAACCTGTTGCGG (site TGCTTCCCTCC) | 0.594 |
| TGCTTCCCTTGGGTTCTAACCTGTTGCGG (site TGGTGCCCTCC) | 0.114 |
| TGGACGACTTGGGTTCTAACCTGTTGCTT (site GATCGAGCTCT) | 0.0173 |
| TGGACGACTTGGGTTCTAACCTGTTGCTT (site TGGACGACTAA) | 0.592 |
| TGGACGCCTTGGGTTCTAACCTGTTGCCT (site TGGACGCCTAG) | 0.252 |
| TGGACGCCTTGGGTTCTAACCTGTTGCCT (site TGGACGTCTAG) | 0.0267 |
| TGGAGCACTTGGGTTCTAACCTGTTGCCT (site TGGAACACTAG) | 0 |
| TGGAGCACTTGGGTTCTAACCTGTTGCCT (site TGGACCACTAG) | 0.107 |
| TGGAGCACTTGGGTTCTAACCTGTTGCCT (site TGGAGCACTAG) | 1.11 |
| TGGAGCACTTGGGTTCTAACCTGTTGCCT (site TGGATCACTAG) | 0.0861 |
| TGGAGCCCTTGGGTTCTAACCTGTTGCAA (site TGGAGCCCTAT) | 0.0946 |
| TGGAGCCCTTGGGTTCTAACCTGTTGCAA (site TGGAGCCCTCT) | 0.0367 |
| TGGAGCCCTTGGGTTCTAACCTGTTGCAA (site TGGAGCCCTGT) | 0.263 |

| Sequence | recombinant barcode read abundance (log10) |
| --- | --- |
| TGGAGCCCTTGGGTTCTAACCTGTTGCAA (site TGGAGCCCTTT) | 0.155 |
| TGGAGCCCTTGGGTTCTAACCTGTTGCAT (site TGGAGCCCTAT) | 0.211 |
| TGGAGCCCTTGGGTTCTAACCTGTTGCAT (site TGGAGCCCTCT) | 0.053 |
| TGGAGCCCTTGGGTTCTAACCTGTTGCAT (site TGGAGCCCTGT) | 0.0522 |
| TGGAGCCCTTGGGTTCTAACCTGTTGCAT (site TGGAGCCCTTT) | 0.15 |
| TGGATGCCTTGGGTTCTAACCTGTTGCCT (site TGAATGACTAG) | 0.0485 |
| TGGATGCCTTGGGTTCTAACCTGTTGCCT (site TGGATGCCTAG) | 0.884 |
| TGGATTGCTTGGGTTCTAACCTGTTGCCT (site TGGATTCCTAG) | 0.0162 |
| TGGATTGCTTGGGTTCTAACCTGTTGCCT (site TGGATTGCTAG) | 0.74 |
| TGGCACCCTTGGGTTCTAACCTGTTGCGG (site TGGAACCCTCC) | 0.129 |
| TGGCACCCTTGGGTTCTAACCTGTTGCGG (site TGGCACCCTCC) | 2.42 |
| TGGCACTCTTGGGTTCTAACCTGTTGCTT (site AGGCACTCTCA) | 0.177 |
| TGGCACTCTTGGGTTCTAACCTGTTGCTT (site TGGCACTCTAA) | 1.02 |
| TGGCCAACTTGGGTTCTAACCTGTTGCGT (site TAGTCAACTAC) | 0.434 |
| TGGCCAACTTGGGTTCTAACCTGTTGCGT (site TGGCCAACTAC) | 1.84 |
| TGGCGTCCTTGGGTTCTAACCTGTTGCCT (site TGGAGTCCTAG) | 0.0306 |
| TGGCGTCCTTGGGTTCTAACCTGTTGCCT (site TGGCGTCCTAG) | 0.963 |
| TGGCGTCCTTGGGTTCTAACCTGTTGCCT (site TGGGGTCCTAG) | 0.0381 |
| TGGCGTCCTTGGGTTCTAACCTGTTGCCT (site TGGTGTCCTAG) | 0.116 |
| TGGGACTCTTGGGTTCTAACCTGTTGCCT (site TGAGACTCTAG) | 2.44 |
| TGGGACTCTTGGGTTCTAACCTGTTGCCT (site TGCGACTCTAG) | 0.00712 |
| TGGGACTCTTGGGTTCTAACCTGTTGCCT (site TGGGACTCTAG) | 2.64 |

| Sequence | recombinant barcode read abundance (log10) |
| --- | --- |
| TGGGACTCTTGGGTTCTAACCTGTTGCCT (site TGTGACTCTAG) | 0.108 |
| TGGGCACCTTGGGTTCTAACCTGTTGCTT (site GGGGCACCTTA) | 0.175 |
| TGGGCACCTTGGGTTCTAACCTGTTGCTT (site TGGGCACCTAA) | 1.37 |
| TGGGGTACTTGGGTTCTAACCTGTTGCCT (site TGGAGTACTAG) | 0.141 |
| TGGGGTACTTGGGTTCTAACCTGTTGCCT (site TGGCGTACTAG) | 0.097 |
| TGGGGTACTTGGGTTCTAACCTGTTGCCT (site TGGGGTACTAG) | 1.11 |
| TGGGGTACTTGGGTTCTAACCTGTTGCCT (site TGGTGTACTAG) | 0.177 |
| TGGGTCCCTTGGGTTCTAACCTGTTGCTT (site TGAGTCCCTTA) | 0.272 |
| TGGGTCCCTTGGGTTCTAACCTGTTGCTT (site TGGGTCCCTAA) | 2.1 |
| TGGTACGCTTGGGTTCTAACCTGTTGCCT (site TGGTACGCTAG) | 1.45 |
| TGGTACGCTTGGGTTCTAACCTGTTGCCT (site TGGTCCGCTAG) | 0.235 |
| TGGTACGCTTGGGTTCTAACCTGTTGCCT (site TGGTGCGCTAG) | 0.15 |
| TGGTACGCTTGGGTTCTAACCTGTTGCCT (site TGGTTCGCTAG) | 0.24 |
| TGGTGCCCTTGGGTTCTAACCTGTTGCGG (site TGCTTCCCTCC) | 0.109 |
| TGGTGCCCTTGGGTTCTAACCTGTTGCGG (site TGGTGCCCTCC) | 1.45 |
| TGGTGTACTTGGGTTCTAACCTGTTGCCT (site TGGAGTACTAG) | 0.0346 |
| TGGTGTACTTGGGTTCTAACCTGTTGCCT (site TGGCGTACTAG) | 0.426 |
| TGGTGTACTTGGGTTCTAACCTGTTGCCT (site TGGGGTACTAG) | 0.143 |
| TGGTGTACTTGGGTTCTAACCTGTTGCCT (site TGGTGTACTAG) | 0.461 |
| TGTAAGACTTGGGTTCTAACCTGTTGCAG (site GAACGCTCTAA) | 0.0634 |

— the supplement of paper PMC11208160
